Assay results taken from paper PMC6128262 (Analytical chemistry, 2018).

Columns and labels:
[1] = system: CIAP; conditions: read-out: Km value of ATP for CIAP; molybdenum blue based assay; cited from earlier work
[2] = system: HpMTAN; conditions: read-out: Km value for AdoHcy (HpMTAN); previously measured; cited from earlier work
[3] = system: N[C@@H](Cc1c[nH]cn1)C(=O)O; assay: purified protein, by the assay type; conditions: pH 8.0; 25.0 °C

In the case of `Nc1ncnc2c1ncn2[C@@H]1O[C@H](COP(=O)(O)OP(=O)(O)OP(=O)(O)O)[C@@H](O)[C@H]1O` [ATP], the Km [1] is listed as 20.5 µM.

In the case of `Nc1ncnc2c1ncn2[C@@H]1O[C@H](CSCC[C@H](N)C(=O)O)[C@@H](O)[C@H]1O` [AdoHcy, S-adenosylhomocysteine], the Km [2] is given as 5 µM.

Work on EgtD (Mycobacterium tuberculosis H37Rv) yielded a Km [3] of 330 ± 35 µM.
